This test relates to BDNF plasma levels. Nature of the test: Plasma BDNF by ELISA in healthy fasted subjects after a single oral dose. The class given is in vivo, human. The conditions noted are these: 50 mg single dose, five healthy subjects (FIG. 2).

Consider `O=C(/C=C/c1ccc(O)c(O)c1)O[C@@H]1C[C@](O)(C(=O)O)C[C@@H](O)[C@H]1O` [chlorogenic acid], for which the “blood level of BDNF, increase” value is “did not increase blood level of BDNF in a statistically significant manner”.
